Assay results from patent publication US12458630B2, “Combination therapy for cancer” (The Regents of the University of California, priority 2020, dated 2025).

Key:
KC6141 mouse PDAC cells = assay: Cell viability assay (CCK-8); type: cell-based; conditions: WT and IKKα KD 6141 cells on ECM, 0.5 mM glucose, 3 days; EIPA, IPI549 600 nM, MBQ-167 500 nM
Method: Extracellular Matrix (ECM) Preparation. Skin fibroblasts were seeded on 6/12/96-well plates. One day after plating, cells were switched into DMEM (with pyruvate) with 10% dialysed FBS supplemented with or without 500 μM ^3H-proline and 100 μM Vitamin C. Cells were cultured for 6 days with media renewal every 24 h. After six days, skin fibroblasts were removed by washing in 1 ml or 500 μl or 100 μl per well PBS with 0.5% (v/v) Triton X-100 and 20 mM NH4OH. ECM was washed five times with PBS before plating KC6141 cells. The following day, KC6141 cells were switched into the indicated medium for 24 or 72 hrs.
Cell viability assay. Cell viability was determined with Cell Counting Kit-8 assay (CCK-8 assay kit, Glpbio). Cells were plated in 96-well plates at a density of 3000 cells (MIA PaCa-2) or 1500 cells (KC6141) per well and incubated overnight prior to treatment. EIPA (10 μM), MRT68921 (600 nM) or erlotinib (2 μM, Sigma) were added to the wells for 72 and 96 hrs. Next, 10 μL of CCK-8 was added to each well. The optical density was read at 450 nm using a microplate reader (FilterMax F5, Molecular Devices, USA) at day 0, 1, 2, 3, and 4. For glutamine-deprivation assays, cells in 96-well plates were rinsed briefly in PBS and incubated in the 0.2 mM glutamine. Glutamine-free DMEM medium was supplemented with 0.2 mM glutamine in the presence of 10% dialysed FBS and 25 mM HEPES. For some conditions, the medium was supplemented with a final concentration of 2% BSA (Fraction V, fatty-acid-, nuclease and protease-free, Calbiochem). For all experiments, media were replaced every 24 hrs. Viable cell counts were obtained using CCK-8 assay described as above.
In some embodiments, cells were plated in 96-well plates coated with or without ECM at a density of 3000 cells (MIA PaCa-2, 1444, 1305, COLO 357/FG) or 1500 cells (KC6141) per well and incubated overnight prior to treatment. EIPA (10.5 μM), IPI549 (600 nM), MBQ-167 (500 nM), MRT68921 (600 nM) or erlotinib (2 μM, Sigma), ML385 (10 μM, Sigma), HCQ (10 μM or 80 μM) or their combinations were added to the wells for 24, 72 or 96 hrs. Next, 10 μL of CCK-8 was added to each well. The optical density was read at 450 nm using a microplate reader (FilterMax F5, Molecular Devices, USA) at day 0, 1, 2, 3, and 4. For glutamine-deprivation assays, cells in 96-well plates were rinsed briefly in PBS and incubated in the 0.2 mM glutamine. Glutamine-free DMEM medium was supplemented with 0.2 mM glutamine in the presence of 10% dialyzed FBS and 25 mM HEPES. For glucose-deprivation assays, cells in 96-well plates were rinsed briefly in PBS and incubated in the 0.5 mM glucose. Glucose-free DMEM medium was supplemented with 0.5 mM glucose in the presence of 10% dialyzed FBS and 25 mM HEPES. For some conditions, the medium was supplemented with a final concentration of 2% BSA (Fraction V, fatty-acid-, nuclease and protease-free, Calbiochem). For all experiments, media were replaced every 24 hrs. Viable cell counts were obtained using CCK-8 assay described as above.

AKT phosphorylation = assay: Immunoblot of AKT phosphorylation; type: cell-based, human; conditions: NRF2(E79Q)-Myc-overexpressing MIA PaCa-2 cells, 600 nM IPI549
Method: Immunoblot and immunoprecipitation. Cells were harvested and lysed in RIPA buffer (50 mM Tris-HCl, pH 7.4, 150 mM NaCl, 1% Triton X-100, 1% Na deoxycholate, 0.1% SDS, 1 mM EDTA) supplemented with complete protease inhibitor cocktail. Proteins were resolved on SDS-polyacrylamide gels, and then transferred to a polyvinylidene difluoride membrane. After blocking with 5% (w/v) fat free milk, the membrane was stained with the corresponding primary antibodies followed by incubation with the appropriate secondary HRP-conjugated antibodies, and development with ECL. Immunoreactive bands were detected by automatic X-ray film processor or KwikQuant Imager.

Structure (SMILES): C[C@H](NC(=O)c1c(N)nn2cccnc12)c1cc2cccc(C#Cc3cnn(C)c3)c2c(=O)n1-c1ccccc1 [IPI549]
- cell viability enhanced by extracellular matrix (ECM) (KC6141 mouse PDAC cells): suppressed
- AKT phosphorylation (AKT phosphorylation): suppression of AKT phosphorylation
